In one assay the test system is CCD-18Co. Kind of assay: Cell-based assay, anti-proliferative activity (Cell Counting Kit-8, 72 hours). Particulars: Homo sapiens, read-out: IC50 (μM) CCD-18Co. The procedure, abridged:
(§1)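 Growth inhibition is read by Cell Counting Kit-8 after three days of compound treatment. Test concentrations span 0, 1.5625, 3.125, 6.25, 12.5, 25, 50 and 100 micro-M, and IC50 serves as the anti-proliferative measure.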
A general note: Tetrazolium assays rely on reduction of a dye to a coloured formazan, in cell work by metabolically active cells.

In another assay the test system is HFL1. The assay is described as above. Particulars: Homo sapiens, read-out: IC50 (μM) HFL1. In short, it runs like this:
as §1

A further assay concerns PC14. The assay is described as above. Particulars: Homo sapiens, read-out: IC50 (μM) PC14. In short, it runs like this: as §1
The next assay deals with HCT-116. Described as above. Conditions: Homo sapiens, read-out: IC50 (μM) HCT-116. The procedure, abridged: as §1
The subject of the next assay is A549. The description is as above. Conditions: Homo sapiens, read-out: IC50 (μM) A549. The procedure, abridged: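 Cells were seeded in 96-well plates and exposed to candidate inhibitors. Cellular growth was then determined with the colorimetric kit, and IC50 values were calculated from the growth data.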
The next assay has as its target SUV39H2 (Homo sapiens (Human), UniProt Q9H5I1). Conditions: read-out: IC50 (μM) Suv 39H2 assay.
Setting [1] is: CCD-18Co cells, Cell Counting Kit-8, 72 hours.
The mark [2] stands for this setting: HFL1 cells, Cell Counting Kit-8, 72 hours.
The mark [3] stands for this setting: PC-14, PC14 cells, Cell Counting Kit-8, 72 hours.
[4] abbreviates: HCT-116 cells, Cell Counting Kit-8, 72 hours.
[5] abbreviates: A549 cells, Cell Counting Kit-8, 72 hours.

Where a name gives a salt, the structure may show the parent alone. Read-outs that look alike come from different tables or passages of the source.

Chain of SUV39H2 (Q9H5I1 whole entry): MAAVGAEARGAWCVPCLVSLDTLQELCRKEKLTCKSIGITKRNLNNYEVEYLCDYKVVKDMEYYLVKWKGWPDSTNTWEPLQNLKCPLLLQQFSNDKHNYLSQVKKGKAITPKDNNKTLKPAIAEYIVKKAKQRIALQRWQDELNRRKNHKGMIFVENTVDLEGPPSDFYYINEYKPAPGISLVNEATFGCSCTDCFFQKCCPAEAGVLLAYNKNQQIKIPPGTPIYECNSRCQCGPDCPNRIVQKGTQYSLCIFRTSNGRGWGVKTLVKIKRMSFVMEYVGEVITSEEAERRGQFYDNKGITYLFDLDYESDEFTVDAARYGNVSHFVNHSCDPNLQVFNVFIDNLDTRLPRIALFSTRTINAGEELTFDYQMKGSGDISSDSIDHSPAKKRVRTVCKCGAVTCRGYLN

Regarding `COc1cc(OC)c(-c2cn3ccc(N4CC[C@H](NC(=O)OC(C)(C)C)C4)cc3n2)cc1Cl` [Example 44, (S)-tert-butyl (1-(2-(5-chloro-2,4-dimethoxyphenyl)imidazo[1,2-a]pyridin-7-yl)-pyrrolidin-3-yl)carbamate], the IC50 in the assay on CCD-18Co (setting [1]) was found to be 2.2 µM; with HFL1 (setting [2]), 1.1 µM; in the assay with PC14 (setting [3]), 1.6 µM; in the assay with HCT-116 (setting [4]) it was 3.4 µM; in the assay on A549 (setting [5]), 3 µM; at SUV39H2 (enzyme assay) it was 0.00982 µM.

As for `COc1cc(OC)c(-c2cn3ccc(N4CC[C@H](N)C4)cc3n2)cc1Cl` [Example 47, (S)-1-(2-(5-Chloro-2,4-dimethoxyphenyl)imidazo[1,2-a]pyridin-7-yl)pyrrolidin-3-amine hydrochloride], the IC50 in the assay on CCD-18Co (CCD-18Co, 72 h) was found to be 3.5 µM; in the assay with HFL1 (HFL1, 72 h), 2 µM; in the assay on PC14 (PC-14, 72 h), 4.5 µM; in the assay with HCT-116 (HCT-116, 72 h) it was 3.4 µM; in the assay on A549 (A549, 72 h) it was 3 µM; on SUV39H2 it was 0.00829 µM.

On to `COc1cc(OC)c(-c2cn3ccc(N4CCCC4)cc3n2)cc1C#N` [Example 49, 2,4-dimethoxy-5-[7-(pyrrolidin-1-yl)imidazo[1,2-a]pyridin-2-yl]benzonitrile], for which the IC50 is 1.1 µM in the assay on CCD-18Co (CCD-18Co, 72 h); 0.8 µM with HFL1 (HFL1, 72 h); 1.3 µM with PC14 (PC-14, 72 h); 1.3 µM in the assay on HCT-116 (HCT-116, 72 h); 1.5 µM in the assay on A549 (A549, 72 h); 0.00371 µM at SUV39H2 (enzyme assay).

With `COc1cc(OC)c(-c2cn3ccc(N(C)CCN)cc3n2)cc1Cl` [Example 54, N^1-(2-(5-chloro-2,4-dimethoxyphenyl)imidazo[1,2-a]yridine-7-yl)-N1-metylethane-1,2-diamine], the IC50 with CCD-18Co (CCD-18Co, 72 h) came out at 3.3 µM; in the assay with HFL1 (HFL1, 72 h) it was 2.5 µM; with PC14 (PC-14, 72 h), 4.9 µM; in the assay with HCT-116 (HCT-116, 72 h), 3.1 µM; in the assay on A549 (A549, 72 h), 4.2 µM; at SUV39H2 (enzyme assay), 0.00585 µM.

`COc1cc(OC)c(-c2cn3cc(NCCN)c(N4CCCC4)cc3n2)cc1Cl` [Example 60, N^1-(2-(5-chloro-2,4-dimethoxyphenyl)-7-(pyrrolidin-1-yl)imidazo[1,2-a]-pyridin-6-yl)ethane-1,2-diamine]: the IC50 amounted to 6 µM in the assay with CCD-18Co (CCD-18Co, 72 h); 2 µM with HFL1 (HFL1, 72 h); 2.6 µM in the assay on PC14 (PC-14, 72 h); 6.8 µM with HCT-116 (HCT-116, 72 h); 6.8 µM in the assay with A549 (A549, 72 h); 0.0094 µM at SUV39H2 (enzyme assay).

Regarding `COc1cc(OC)c(-c2cn3ccc(N4CCC(CCNC(=O)OC(C)(C)C)CC4)nc3n2)cc1Cl` [Example 61, tert-butyl (2-{1-[2-(5-chloro-2,4-dimethoxyphenyl)imidazo[1,2-a]pyrimidin-7-yl]piperidin-4-yl}-ethyl)carbamate], the IC50 in the assay with CCD-18Co (setting [1]) is 4.3 µM; in the assay with HFL1 (setting [2]), 3.4 µM; in the assay with PC14 (setting [3]), 1.7 µM; in the assay with HCT-116 (setting [4]), 4.1 µM; with A549 (setting [5]) it was 4.5 µM; on SUV39H2 (enzyme assay) it was 0.00831 µM.

With `COc1cc(OC)c(-c2cn3ccc(N4CCC(NS(=O)(=O)C5CC5)C4)cc3n2)cc1Cl` (stereo not drawn) [Example 63, N-(1-(2-(5-chloro-2,4-dimethoxyphenyl)imidazo[1,2-a]pyridine-7-yl)pyrrolidin-3-yl)cyclopropanesulfonamide], the IC50 in the assay with CCD-18Co (setting [1]) stood at 3.8 µM; in the assay with HFL1 (setting [2]), 1.7 µM; with PC14 (setting [3]), 2.1 µM; in the assay on HCT-116 (setting [4]), 1.6 µM; in the assay on A549 (setting [5]) it was 3 µM; on SUV39H2 (enzyme assay), 0.00395 µM.

On to `COc1cc(OC)c(-c2cn3ccc(N4CCC(NC(C)=O)C4)nc3n2)cc1Br` (stereo not drawn) [Example 66], for which the IC50 in the assay on CCD-18Co (setting [1]) turned out to be 27 µM; in the assay on HFL1 (setting [2]) it was 26 µM; in the assay on PC14 (setting [3]) it was 16 µM; in the assay with HCT-116 (setting [4]), 18 µM; in the assay with A549 (setting [5]), 25 µM; on SUV39H2 (enzyme assay), 0.00747 µM.

For the molecule `COc1cc(OC)c(-c2cn3ccc(N4CCC(NC(=O)OC(C)(C)C)C4)cc3n2)cc1C#N` (stereo not drawn) [Example 71, tert-butyl {1-[2-(5-cyano-2,4-dimethoxyphenyl)imidazo[1,2-a]pyridin-7-yl]pyrrolidin-3-yl}carbamate], the IC50 with CCD-18Co (setting [1]) is 3.2 µM; with HFL1 (setting [2]), 1.6 µM; with PC14 (setting [3]), 2 µM; in the assay with HCT-116 (setting [4]), 1.9 µM; with A549 (setting [5]) it was 2.6 µM; on SUV39H2 (enzyme assay), 0.0075 µM.

`COc1cc(OC)c(-c2cn3ccc(N4CCC(CCN)CC4)cc3n2)cc1Cl` [Example 72, 2-(1-(2-(5-chloro-2,4-dimethoxyphenyl)imidazo[1,2-a]pyridine-7-yl)piperidin-4-yl)ethanamine dihydrochloride]: the IC50 in the assay with CCD-18Co (CCD-18Co, 72 h) was 7 µM; in the assay on HFL1 (HFL1, 72 h), 3.7 µM; in the assay on PC14 (PC-14, 72 h), 2.5 µM; with HCT-116 (HCT-116, 72 h), 4.9 µM; in the assay with A549 (A549, 72 h), 5.3 µM; at SUV39H2, 0.00875 µM.

Consider `COc1cc(OC)c(-c2cn3cc(NCCN)c(OC)cc3n2)cc1Cl` [Example 75, N^1-(2-(5-chloro-2,4-dimethoxyphenyl)-7-methoxyimidazo[1,2-a]-pyridin-6-yl)ethane-1,2-diamine], for which the IC50 in the assay on CCD-18Co (setting [1]) was found to be 7.2 µM; in the assay with HFL1 (setting [2]), 3.5 µM; with PC14 (setting [3]), 5.7 µM; with HCT-116 (setting [4]), 6.7 µM; with A549 (setting [5]) it was 6.9 µM; on SUV39H2 (enzyme assay), 0.00271 µM.

Turning to `COc1cc(OC)c(-c2cn3cc(NCCN)c(C)cc3n2)cc1Cl` [Example 78, N^1-(2-(5-chloro-2,4-dimethoxyphenyl)-7-methylimidazo[1,2-a]pyridin-6-yl)ethane-1,2-diamine], the IC50 with CCD-18Co (CCD-18Co, 72 h) turned out to be 5.7 µM; in the assay with HFL1 (HFL1, 72 h), 2.7 µM; with PC14 (PC-14, 72 h) it was 6.1 µM; in the assay on HCT-116 (HCT-116, 72 h) it was 5.6 µM; in the assay with A549 (A549, 72 h), 6.3 µM; on SUV39H2 (enzyme assay), 0.00431 µM.

Regarding `COc1cc(OCCCN(C)C)c(-c2cn3ccc(N4CCCC4)cc3n2)cc1Cl` [Example 80, 3-{4-chloro-5-methoxy-2-[7-(pyrrolidin-1-yl)imidazo[1,2-a]pyridin-2-yl]-phenoxy}-N,N-dimethylpropan-1-amine], the IC50 in the assay on CCD-18Co (setting [1]) was determined as 1.8 µM; in the assay with HFL1 (setting [2]) it was 0.85 µM; with PC14 (setting [3]), 1.7 µM; in the assay with HCT-116 (setting [4]) it was 1.1 µM; in the assay on A549 (setting [5]), 1.6 µM; at SUV39H2 (enzyme assay), 0.00531 µM.

Take `COc1cc(OCC2CC2)c(-c2cn3ccc(N4CCCC4)cc3n2)cc1Cl` [Example 82, 2-(5-chloro-2-(cyclopropylmethoxy)-4-methoxyphenyl)-7-(pyrrolidin-1-yl)imidazo[1,2-a]pyridine]: the IC50 in the assay with CCD-18Co (setting [1]) was 3.8 µM; in the assay with HFL1 (setting [2]), 2 µM; in the assay on PC14 (setting [3]) it was 4.7 µM; with HCT-116 (setting [4]), 3.2 µM; in the assay on A549 (setting [5]) it was 3.5 µM; on SUV39H2 (enzyme assay) it was 0.00538 µM.

On to `COc1cc(OC)c(-c2cn3ccc(N4CCN(CCN(C)C)CC4)cc3n2)cc1Cl` [Example 88, 2-(4-(2-(5-chloro-2,4-dimethoxyphenyl)imidazo[1,2-a]pyridin-7-yl)piperazin-1-yl)-N,N-dimethylethanamine], for which the IC50 in the assay with CCD-18Co (setting [1]) stood at 5.6 µM; with HFL1 (setting [2]), 3 µM; with PC14 (setting [3]) it was 2.9 µM; in the assay with HCT-116 (setting [4]), 3.9 µM; in the assay with A549 (setting [5]), 3.3 µM; at SUV39H2 (enzyme assay), 0.00884 µM.

As for `COc1cc(OC)c(-c2cn3cc(NCCN)c(N4CCOCC4)cc3n2)cc1Cl` [Example 89, N^1-(2-(5-chloro-2,4-dimethoxyphenyl)-7-morpholinoimidazo[1,2-a]-pyridin-6-yl)ethane-1,2-diamine], the IC50 was 3 µM in the assay on CCD-18Co (setting [1]); 1.6 µM in the assay with HFL1 (setting [2]); 2.7 µM with PC14 (setting [3]); 4.4 µM in the assay with HCT-116 (setting [4]); 3 µM in the assay with A549 (setting [5]); 0.00335 µM on SUV39H2 (enzyme assay).

For orientation: IC50 means the concentration that gives 50% inhibition.
